One data set has as its system Jurkat T cells. The data set can be described thus: Necrosis (CICD) of Jurkat T cells induced by Fas ligand, cycloheximide and zVAD, ATP assay. The format is cell-based, human. The following applies: FasL/CHX/zVAD. Here is the method:
Jurkat cells were treated with 5 ng/ml of FasL without (A) or with cyclohexamide (CHX) (B) to induce apoptosis, or 5 ng/ml FasL, 1 μg/ml of CHX and 100 μM of zVAD.fmk to induce CICD (B). […] Cell viability was determined after 24 hours of incubation with indicated reagents using CellTiter-Glo ATP assay. The values represent viability relative to the control Jurkat cells without the treatment of FasL, which was set as 100% viability.
FIG. 34A is a graph showing the results of treating Jurkat T cells with Fas ligand (5 ng/ml), cyclohexamide (1 μg/ml) and zVAD (100 μM) in the presence of the indicated amounts of anti-necrotic compounds (4) and (5). Viability was determined 36 hours later using an ATP assay. The viability values are relative to the samples lacking Fas ligand, which were used as 100% viability controls. FIG. 34B is a graph as in FIG. 34A, in which the anti-necrotic compounds are (19) and (20).
Compounds were also tested in another necrosis assay utilizing human Jurkat T cells, Fas ligand to induce cell death, and zVAD to inhibit the apoptosis pathway. After 36 hours, cell viability was measure by the commercial CellTiter ATP cell viability assay (Promega).

Data set [1] relates to FADD-deficient Jurkat T cells treated with TNF-α. The experiment in a line: Inhibition of necroptosis (CICD) in FADD-deficient Jurkat T cells treated with TNF-α, ATP-based viability. The format is cell-based, human. The following applies: Homo sapiens, Jurkat, 24 h; read-out: EC50 (μM) for inhibition of necroptosis.

On to `COc1ccc([C@H]2[C@@H]3CCc4ccc(OC)cc4C3=NN2C(C)=O)cc1` (relative stereo) [Compound 142, (3R,3aS)-rel-2-acetyl-3,3a,4,5-tetrahydro-3-(4-methoxyphenyl)-8-methoxy-2H-benz[g]indazole], for which the “inhibition of CICD/necrosis of Jurkat cells, in words” value in the data set on Jurkat T cells was “only the cis isomers (4) (FIG. 34A) and (19) (FIG. 34B) were found to efficiently inhibit necrosis”.

For the molecule `COc1ccc2c(c1)C1=NN(C(C)=O)[C@@H](c3ccc(F)cc3)[C@@H]1CC2` (relative stereo) [Compound 160, (3R,3aS)-rel-2-acetyl-3,3a,4,5-tetrahydro-3-(4-fluorophenyl)-8-methoxy-2H-benz[g]indazole], the “inhibition of CICD/necrosis of Jurkat cells, in words” value in the data set with Jurkat T cells was “only the cis isomers (4) (FIG. 34A) and (19) (FIG. 34B) were found to efficiently inhibit necrosis”. The half-maximal effective concentration (EC50) in data set [1] stood at 3.7 ± 0.75 µM.

As to `COc1ccc2c(c1)C1=NN(C(C)=O)[C@@H](c3ccc(F)cc3)[C@H]1CC2` (relative stereo) [Compound 161, (3R,3aR)-rel-2-acetyl-3,3a,4,5-tetrahydro-3-(4-fluorophenyl)-8-methoxy-2H-benz[g]indazole], in the data set on Jurkat T cells, the “inhibition of CICD/necrosis of Jurkat cells, in words” value is “efficiently inhibit necrosis and result in high cell viability”. The EC50 in data set [1] stood at 0.96 ± 0.085 µM.

Consider `COc1cc2c(cc1OC)C1=NN(C(C)=O)[C@@H](c3ccc(F)cc3)[C@H]1CC2` (relative stereo) [Compound 164, (3R,3aR)-rel-2-acetyl-3,3a,4,5-tetrahydro-3-(4-fluorophenyl)-7,8-dimethoxy-2H-benz[g]indazole], for which the melting point lay within 189 to 193 °C. For the same molecule, in data set [1], the EC50 was greater than 100 µM.

Take `CC(=O)N1N=C2c3ccccc3CC[C@@H]2[C@@H]1c1ccc(F)cc1` (relative stereo) [Compound 165, (3R,3aR)-rel-2-acetyl-3,3a,4,5-tetrahydro-3-(4-fluorophenyl)-2H-benz[g]indazole]: the melting point lay within 166 to 168 °C. In data set [1], the EC50 turned out to be 5.4 ± 1.1 µM.

On to `COc1ccc2c(c1)C1=NN(C(C)=O)[C@@H](c3cccc(F)c3)[C@H]1CC2` (relative stereo) [Compound 166, (3R,3aR)-rel-2-acetyl-3,3a,4,5-tetrahydro-3-(3-fluorophenyl)-8-methoxy-2H-benz[g]indazole], for which the melting point was in the range of 176 to 177 °C. Also, the EC50 in data set [1] turned out to be 0.68 ± 0.009 µM.

For the molecule `COc1ccc([C@H]2[C@H]3CCc4ccccc4C3=NN2C(C)=O)cc1` (relative stereo) [Compound 167, (3R,3aR)-rel-2-acetyl-3,3a,4,5-tetrahydro-3-(4-methoxyphenyl)-2H-benz[g]indazole], the melting point lay in the range of 257 to 260 °C. In addition, the EC50 in data set [1] was determined as 0.84 ± 0.32 µM.

`COc1ccc2c(c1)C1=NN(C(C)=O)[C@@H](c3ccc4c(c3)OCO4)[C@H]1CC2` (relative stereo) [Compound 177, (3R,3aR)-rel-2-acetyl-3,3a,4,5-tetrahydro-3-(3,4-methylenedioxyphenyl)-8-methoxy-2H-benz[g]indazole] showed a melting point of 206 to 209 °C. Also, the EC50 in data set [1] was determined as 2.6 ± 1.3 µM.

With `COc1ccc2c(c1)C1=NN(C(C)=O)[C@@H](c3ccc4c(c3)OCCO4)[C@H]1CC2` (relative stereo) [Compound 178, (3R,3aR)-rel-2-acetyl-3,3a,4,5-tetrahydro-3-(3,4-ethylenedioxyphenyl)-8-methoxy-2H-benz[g]indazole], the melting point lay within 189 to 193 °C. Also, the EC50 in data set [1] is 2.1 ± 0.65 µM.

With `CC(=O)N1N=C2c3cc(C)ccc3OC[C@H]2[C@@H]1c1ccc(F)cc1` (relative stereo) [Compound 184, (3R,3aS)-rel-2-acetyl-2,3,3a,4-tetrahydro-3-(4-fluorophenyl)-8-methyl-[1]benzopyrano[4,3-c]pyrazole], the melting point lay within 218 to 220 °C. The EC50 in data set [1] is greater than 100 µM.

Molecule `CC(=O)N1N=C2c3cc(C)ccc3OC[C@@H]2[C@@H]1c1ccc(F)cc1` (relative stereo) [Compound 185, (3R,3aR)-rel-2-acetyl-2,3,3a,4-tetrahydro-3-(4-fluorophenyl)-8-methyl-[1]benzopyrano[4,3-c]pyrazole] gave a melting point of 243 to 246 °C. In data set [1], the EC50 stood at 11.6 ± 6.1 µM.

On to `COc1ccc2c(c1)C1=NN(C(C)=O)[C@@H](c3ccc(F)cc3)[C@H]1CO2` (relative stereo) [Compound 186, (3R,3aR)-rel-2-acetyl-2,3,3a,4-tetrahydro-3-(4-fluorophenyl)-8-methoxy-[1]benzopyrano[4,3-c]pyrazole], for which the melting point worked out at 245 °C. The EC50 in data set [1] was determined as 4.8 ± 1.3 µM.

`CC(=O)N1N=C2c3ccccc3CC[C@H]2[C@@H]1c1ccc(F)cc1` (relative stereo) [Compound 199, (3R,3aS)-rel-2-acetyl-3,3a,4,5-tetrahydro-3-(4-fluorophenyl)-2H-benz[g]indazole] showed a melting point of 168 to 171 °C.

As to `COc1ccc2c(c1)C1=NN(C(C)=O)[C@@H](c3cccc(F)c3)[C@@H]1CC2` (relative stereo) [Compound 200, (3R,3aS)-rel-2-acetyl-3,3a,4,5-tetrahydro-3-(3-fluorophenyl)-8-methoxy-2H-benz[g]indazole], the melting point was 196 to 199 °C.

The molecule `COc1ccc([C@H]2[C@@H]3CCc4ccccc4C3=NN2C(C)=O)cc1` (relative stereo) [Compound 201, (3R,3aS)-rel-2-acetyl-3,3a,4,5-tetrahydro-3-(4-methoxyphenyl)-2H-benz[g]indazole] returned a melting point of 260 to 262 °C.

Molecule `COc1ccc2c(c1)C1=NN(C(C)=O)[C@@H](c3ccc4c(c3)OCO4)[C@@H]1CC2` (relative stereo) [Compound 205, (3R,3aS)-rel-2-acetyl-3,3a,4,5-tetrahydro-3-(3,4-methylenedioxyphenyl)-8-methoxy-2H-benz[g]indazole] registered a melting point of 165 to 169 °C.

For the molecule `COc1ccc2c(c1)C1=NN(C(C)=O)[C@@H](c3ccc4c(c3)OCCO4)[C@@H]1CC2` (relative stereo) [Compound 206, (3R,3aS)-rel-2-acetyl-3,3a,4,5-tetrahydro-3-(3,4-ethylenedioxyphenyl)-8-methoxy-2H-benz[g]indazole], the melting point is 194 to 197 °C.

With `COc1ccc2c(c1)C1=NN(C(C)=O)[C@@H](c3ccc(F)cc3)[C@@H]1CO2` (relative stereo) [Compound 211, (3R,3aS)-rel-2-acetyl-2,3,3a,4-tetrahydro-3-(4-fluorophenyl)-8-methoxy-[1]benzopyrano[4,3-c]pyrazole], the melting point fell in the range of 174 to 176 °C.

Take `O=c1[nH]c2ccccc2c2ccccc12` [6(5H)-Phenanthridione, reference compound]: the “inhibition of CICD/necrosis of Jurkat cells, in words” value with Jurkat T cells is “failed to inhibit CICD of Jurkat cells”.

For `O=C1NCCc2c(OCCCCN3CCCCC3)cccc21` [DPQ, 3,4-Dihydro-5[4(1-piperindinyl)butoxy]-1(2H)-isoquinoline, reference compound], the “inhibition of CICD/necrosis of Jurkat cells, in words” value in the data set on Jurkat T cells is given as “failed to inhibit CICD of Jurkat cells”.

For orientation: EC50 means the concentration at which the effect is half-maximal. In general, melting point refers to the temperature, or range, at which the solid turns liquid.

For the origin of these results see patent publication US20130158024A1, “TRICYCLIC NECROSTATIN COMPOUNDS” (priority 2005, published 2013).
